# Test system: Chorioallantioic Membrane (CAM)
# Assay type: in vivo
# Settings: 50 μg/cam; BRI2995: surviving eggs
# Procedure: The in vivo CAM angiogenesis model, initially described by Folkman (1985) and modified by Maragoudakis et al (1988) was used. Briefly, fresh fertilized eggs were incubated for 4 days at 37° C. when a window was opened on the egg shell exposing the CAM. The window was covered with cellophane tape and the eggs were returned to the incubator until day 9 when the test compounds were applied. The test compounds were placed on sterile plastic discs (10 mm) and were allowed to dry under sterile conditions. Control discs (containing PBS) were placed on the CAM 1 cm away from the discs containing the test material. A sterile solution of cortisone acetate (100 ug/disc, Sigma) was incorporated in all discs in order to prevent an inflammatory response. The loaded and dried discs were inverted and placed on the CAM, the windows were covered and the eggs incubated until day 11 when angiogenesis was assessed.
# For morphological evaluation, eggs were treated as above. At day 11 the eggs were flooded with 10% buffered formalin (Janssen Chimica, Geel, Belguim), the plastic discs were removed and the eggs were kept at room temperature for at least 4 hours. At large area around the disc was cut off and placed on a glass slide, and the vascular density index (expressed as number of blood vessels) was measured by the method of Harris-Hooker et al (1983).
smiles,measurement,value
CO[C@@H]1[C@H](OC(=O)NC(=O)CCl)CC[C@]2(CO2)[C@H]1[C@@]1(C)O[C@@H]1CC=C(C)C [TNP-470],inhibition (reduction) of vascular density,21%±16
